These results are taken from US12295973B2 (Fred Hutchinson Cancer Center, priority 2017, dated 2025).

Where a SMILES comes first, the peptide text is derived from it. [ ]: non-standard residue; d: D form. The star is where a group is joined. dPhe(4-NHCONH2) = NC(=O)Nc1ccc(C[C@@H](N)C(=O)O)cc1; Dihydroorotyl(S) = O=C1C[C@@H](C(=O)*)NC(=O)N1; dPhe(4-Cl) = N[C@H](Cc1ccc(Cl)cc1)C(=O)O; Phe(4-NH2) = Nc1ccc(C[C@H](N)C(=O)O)cc1; d2Nal = N[C@H](Cc1ccc2ccccc2c1)C(=O)O; Lys(iPr) = CC(C)NCCCC[C@H](N)C(=O)O; d3Pal = N[C@H](Cc1cccnc1)C(=O)O

Common to all, as to format: in vivo, mouse
Assay [1] deals with mice exposed to L-TBI. Nature of the assay: Complete blood counts (peripheral blood recovery) after L-TBI. The note with it: vs vehicle. The source says: Description. Inhibition of sex steroids, which can be achieved in a reversible fashion pharmacologically, is a well-described strategy to promote lymphopoiesis in the BM and thymus^8,7,14,15. Although the most common method of sex steroid ablation clinically has been to use LHRH-agonists, it was described that an LHRH-Antagonist represents a more rational approach to promote immediate ablation of sex steroids for immune regeneration as it is far more rapid and abrogates the initial surge in sex steroids that LHRH-Agonist cause^16. Taken together with the impact of sex steroid inhibition on HSC function and the rapid regenerative effects of LHRH-Ant, it was hypothesized that LHRH-Ant could represent a rational non-cellular medical countermeasure for mitigating radiation injury and promoting hematopoietic regeneration when administered after hematopoietic insult. To test this hypothesis, a lethal TBI (L-TBI) dose of 840cGy that mediated lethality in more than 90% of mice (FIG. 1A) was used. […] Mouse lethality was a result of bone marrow failure, since transplant of BM Lin-Sca1^+tkit^+ (LSK) cells 3 days after L-TBI completely rescued all mice (FIG. 1B). […] It was then tested if LHRH-Ant could mediate even greater mouse survival when administered multiple times.
Methods. […] To assess mouse survival after radiation, mice were monitored for up to 60 days after TBI. […]

The test system of assay [2] is committed hematopoietic progenitor cells. The assay can be described thus: Colony-forming unit activity of BM from L-TBI mice. The note with it: day 7 after L-TBI. How it is done: To investigate the specific regenerative effects mediated by LHRH-Ant treatment on the hematopoietic stem and progenitor cell (HSPC) compartment, BM were analyzed at several time points after L-TBI. […] To determine hematopoietic functional potential, colony-forming unit activity was next quantified to determine the effects of LHRH-Ant on the recovery of committed hematopoietic progenitor cells. […] Consistent with these functional findings, on day 14 after L-TBI, expansion of LSKs as well as their downstream progenitors in mice given LHRH-Ant were found (FIGS. 2F, 2G). […] However, given the changes in HSC phenotype after radiation, the standard competitive repopulation functional assay was adapted to evaluate the presence and relative quantity of functional HSCs after L-TBI. […]
Colony-Forming Cell (CFC) and Cobblestone Areas Forming Cell (CAFC): Assays were performed as previously described with a minor modifications^50. […] Colonies were scored after 10 days of incubation at 37° C. and 5% CO2. […] After 3 weeks of co-culture, CAFCs were scored as phase-dark hematopoietic clones of at least 5 cells beneath the stromal layer using an inverted microscope.

Assay [3] has as its system LT-HSCs. Nature of the assay: Cell apoptosis by AnnexinV/DAPI staining after radiation exposure. The note with it: vs vehicle. The source says:
To further validate this hypothesis, two additional models were used to force HSCs out of their quiescence phase, Poly I:C and sub-lethal dose of total body irradiation (SL-TBI)^35,42,43. To eliminate any potential effects of downstream sex steroids on HSCs, all cohorts of mice in these studies had been surgically castrated.

Take `CC(=O)N[C@H](Cc1ccc2ccccc2c1)C(=O)N[C@H](Cc1ccc(Cl)cc1)C(=O)N[C@H](Cc1cccnc1)C(=O)N[C@@H](CO)C(=O)N[C@@H](Cc1ccc(NC(=O)[C@@H]2CC(=O)NC(=O)N2)cc1)C(=O)N[C@H](Cc1ccc(NC(N)=O)cc1)C(=O)N[C@@H](CC(C)C)C(=O)N[C@@H](CCCCNC(C)C)C(=O)N1CCC[C@H]1C(=O)N[C@H](C)C(N)=O` [LHRH-Ant, Degarelix] (Ac-[d2Nal][dPhe(4-Cl)][d3Pal]S[Phe(4-NH2)](Dihydroorotyl(S))[dPhe(4-NHCONH2)]L[Lys(iPr)]P[dA]-NH2): the “complete blood counts recovery after L-TBI” value in assay [1] was “recovered after L-TBI”. Besides, in assay [2], the BFU-E colonies result is reported as “significant increase” and the CFU-GM colonies result is given as “significant increase”. Besides, the “proportion of live LT-HSCs” value in assay [3] is given as “significantly increased the proportion of live LT-HSCs”.
